{"source": "patent US11591324B2", "about": "“Retinoic acid receptor antagonists as chaperone-mediated autophagy modulators and uses thereof” (ALBERT EINSTEIN COLLEGE OF MEDICINE, priority 2013, dated 2023)", "key": {"[1]": {"system": "macroautophagy (LC3-II)", "assay": "Macroautophagy: LC3-II levels and flux (immunoblot, mCherry-GFP-LC3)", "format": "cell-based", "details": "mouse fibroblasts; retinoid derivatives 20 μM", "text": "(§1) Autophagic measurements. […] Lysosomes from cultured cells were isolated by similar procedures but using instead discontinuous metrizamide/percoll gradients after rupture of the plasma membrane through nitrogen cavitation^33.\nTo directly analyze macroautophagy, a widely accepted assay was used to measure activity of this pathway based on the analysis of the intracellular levels and degradation of the lipid-conjugated form of the light chain protein type 3 (LC3-II), a constitutive component of autophagosomes^29. Steady-state levels of LC3-II provide information on the amount of autophagosomes present in a cell at a given time, whereas the amount of LC3-II that accumulates upon blockage of lysosomal proteolysis allows measuring the efficiency of fusion and degradation of autophagic vacuoles by lysosomes (autophagic flux). […] Immunofluorescence for LC3 in these cells confirmed the presence of higher content of LC3-positive vesicles in the cells defective for RARα. These vesicles were confirmed to be autophagosomes using a double tagged form of LC3 (mCherry-GPF-LC3) that due to quenching of GFP fluorescence at low pH highlights autophagosomes in yellow and lysosomes in red. […] An increase in autophagosome content can result from increased formation of these organelles (autophagosome induction) or from reduced clearance of autophagosomes by lysosomes. To differentiate between both possibilities, the autophagic flux was compared in control and RARα (−) cells."}, "[2]": {"system": "chaperone-mediated autophagy (CMA)", "assay": "CMA reporter assay (photoactivable KFERQ-PA-mCherry1 reporter)", "format": "cell-based, mouse", "details": "for CMA activity (fluorescent puncta per cell, CMA reporter): mouse fibroblasts, 20 μM", "text": "as §1\nCMA reporter assay. The photoactivable CMA reporter was constructed by inserting a sequence of 21 amino acids of Ribonuclease A bearing the CMA-targeting motif in the N-terminus multicloning site of the photoactivable protein mCherry1 (PA-mCherry1)^30. […] All images were acquired with a high-resolution CCD camera after optical sectioning through the apotome. Images were prepared using Adobe Photoshop 6.0 software (Adobe Systems). Quantification was performed in individual frames after deconvolution and thresholding using ImageJ software (NIH) in a minimum of 50 cells.\nBecause the observed downregulation of macroautophagy upon RARα knock-down cannot explain the increase in lysosomal degradation observed in these cells (FIG. 1c), the effect of this intervention on CMA was measured. Activation of this selective autophagic pathway can be determined using a photoactivable (PA) reporter fused to the CMA-targeting motif (KFERQ-PA-mcherry1)^30. Activation of CMA favors mobilization of this artificial CMA substrate from the cytosol to lysosomes, which can be tracked as a change in the reporter fluorescence from a diffuse to a punctate pattern^30."}, "[3]": {"system": "LAMP-2A", "assay": "LAMP-2A mRNA levels (quantitative real time PCR)"}, "[4]": {"target": "T1, hRARα (Homo sapiens, UniProt P10276)", "T1 construct": "expressed in transfected cells; host or cells: mouse fibroblasts (NIH3T3)", "T1 sequence (P10276 with tags, fused parts or gaps limits assumed)": "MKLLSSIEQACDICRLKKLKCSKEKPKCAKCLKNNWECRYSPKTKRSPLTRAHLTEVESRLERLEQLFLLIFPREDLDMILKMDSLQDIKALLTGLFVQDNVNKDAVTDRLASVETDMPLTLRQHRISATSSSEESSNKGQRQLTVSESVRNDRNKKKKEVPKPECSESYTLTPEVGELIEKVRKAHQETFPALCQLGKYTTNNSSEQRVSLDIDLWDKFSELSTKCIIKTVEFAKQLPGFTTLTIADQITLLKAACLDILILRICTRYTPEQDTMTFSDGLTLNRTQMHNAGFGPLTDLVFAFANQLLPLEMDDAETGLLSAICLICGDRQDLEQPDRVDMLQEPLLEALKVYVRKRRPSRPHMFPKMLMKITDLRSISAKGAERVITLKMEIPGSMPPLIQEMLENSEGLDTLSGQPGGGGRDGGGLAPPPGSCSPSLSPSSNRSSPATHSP", "assay": "RARα activity, RAR-responsive luciferase reporter", "format": "cell-based", "details": "for RARα antagonist activity (inhibition of ATRA-dependent luciferase): in combination with 100 nM ATRA", "experimental": "Measurement of RARα and RXR activity. A RAR-responsive luciferase construct was utilized to monitor the activity of RARα in cultured cells. Cells were co-transfected with pCMX-Gal-L-hRARα and a construct encoding the firefly luciferase reporter gene under the control of a minimal promoter and tandem repeats of the retinoic-acid response element (tk-px3-luc). Co-transfection with a renilla luciferase reporter plasmid was performed to control for efficiency of transfection. RXR activity was measured by similar procedures using co-transfection with pCMX-mRXR and tk-apoA1-luc. Compounds were added 24 h after transfection and 48 h later cells were lysed and assayed for luciferase activity using the Dual-Luciferase Reporter Assay System (Progmega). Luciferase values were normalized to the renilla luciferase reporter.\nTo determine the effect of these molecules on RAR signaling, cells were co-transfected cells with a plasmid coding for RAR fused to the Gal4 DNA-binding domain and a Gal4-dependent luciferase reporter."}, "[5]": {"system": "mouse fibroblasts (NIH3T3)", "assay": "Intracellular protein degradation (metabolic labeling, pulse chase)"}, "[6]": {"system": "chaperone-mediated autophagy (CMA)", "assay": "High content microscopy CMA assay (KFERQ-PS-dendra reporter)", "format": "cell-based, mouse", "details": "for basal versus stress-induced CMA activation: presence or absence of serum", "experimental": "CMA activity in mouse fibroblasts in culture was measured using a new version of a previously developed photoswitchable (PS) CMA fluorescent reporter^30 generated by addition of a CMA targeting motif to the PS-dendra protein (KFERQ-PS-dendra). Briefly, cells transduced with lentivirus carrying the reporter were photoactivated 24 h after transduction by exposure to a 3.5 mA (current constant), and 90V light emitting diode (LED: Norlux, 405 nm) for 9 min. Cells were plated in 96 well plates, subjected to the desired treatments and at the end of the experiment fixed in 4% paraformaldehyde. Images were captured with a high content microscope (Opperetta system, Perkin Elmer) and quantification was performed with the instrument software in a minimum of 200 cells or 9 fields."}, "[7]": {"system": "mouse fibroblasts transfected with α-synuclein", "assay": "α-synuclein plus PQ proteotoxicity (viability, immunoblot)", "format": "cell-based", "details": "pre-treatment 20 μM before 1 mM PQ", "text": "Maintained chronic oxidation is a common feature of aging and an aggravating factor in multiple degenerative disorders. To model the detrimental effect of oxidative stress on proteotoxicity and analyze the possible beneficial effect of enhancing CMA activity in these conditions, cells were transfected with α-synuclein, the protein that accumulates in the form of intracellular aggregates in Parkinson's disease (PD) and previously identified as a bonafide CMA substrate^9,10. Although mutations in this protein have been associated to the familial forms of the disease, in more than 98% of PD patients the protein that accumulates in the protein inclusions is wild type. Consequently, different intracellular factors and aggressors, including oxidative stress, have been proposed to contribute to the idiopathic forms of this pathology. […] Although the presence of α-synuclein alone was not toxic for these cells, the toxicity of a fixed concentration of PQ was clearly dependent on the concentration of this protein present in the cell. The concentration of PQ added to these cells was adjusted so that in cells expressing low levels of α-synuclein, its toxic effect was limited to no more than 20% reduction in cellular viability. […]"}, "[8]": {"target": "T2, RARα (Mus musculus, UniProt P11416)", "T2 construct": "endogenous in cells; host or cells: mouse fibroblasts (NIH3T3), inferred", "T2 sequence (P11416 1-462)": "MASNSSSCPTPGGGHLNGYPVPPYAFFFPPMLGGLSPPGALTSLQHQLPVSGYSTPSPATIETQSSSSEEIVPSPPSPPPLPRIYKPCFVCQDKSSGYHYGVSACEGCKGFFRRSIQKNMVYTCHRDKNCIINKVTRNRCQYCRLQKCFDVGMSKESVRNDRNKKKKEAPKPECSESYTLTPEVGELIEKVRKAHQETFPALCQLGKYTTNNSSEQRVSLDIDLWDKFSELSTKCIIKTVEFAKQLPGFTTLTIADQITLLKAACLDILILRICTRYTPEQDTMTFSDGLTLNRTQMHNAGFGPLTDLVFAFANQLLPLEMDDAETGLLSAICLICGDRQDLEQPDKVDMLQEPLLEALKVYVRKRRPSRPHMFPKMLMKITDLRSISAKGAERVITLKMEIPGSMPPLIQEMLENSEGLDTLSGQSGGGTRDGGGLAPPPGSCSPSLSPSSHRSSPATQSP", "assay": "RARα translocation to the nucleus", "format": "cell-based"}}, "note": "Starred links: 1 amine or outer side, 2 acyl side, 3 side chain; linkers in the order of their positions; H or OH if unused. Positions of bridges follow the written chain, without caps; N, C: chain ends. Non-standard residues stand in square brackets, D forms with d. Residues, ends and D or L forms follow the SMILES beside them. Chains are numbered I, II in the order given. Actinocin(9to1) = Cc1c2oc3c(C)ccc(C(=O)[*:1])c3nc-2c(C(=O)[*:2])c(N)c1=O; NMeV = CN[C@H](C(=O)O)C(C)C; Sar = CNCC(=O)O"}
{"smiles": "CC1(C)CC=C(c2cnc3ccccc3c2)c2cc(C(=O)Nc3ccc(C(=O)O)cc3)ccc21", "note": "[BMS614]", "values": [{"measurement": "macroautophagy: LC3 steady state levels and lysosomal flux", "setting": "[1]", "value": "inhibited macroautophagy"}, {"measurement": "CMA activity (fluorescent puncta per cell, CMA reporter)", "setting": "[2]; presence of serum", "value": "also enhanced CMA activity"}]}
{"smiles": "Cc1c2oc3c(C)ccc(C(=O)N[C@@H]4C(=O)N[C@H](C(C)C)C(=O)N5CCC[C@H]5C(=O)N(C)CC(=O)N(C)[C@@H](C(C)C)C(=O)O[C@@H]4C)c3nc-2c(C(=O)N[C@@H]2C(=O)N[C@H](C(C)C)C(=O)N3CCC[C@H]3C(=O)N(C)CC(=O)N(C)[C@@H](C(C)C)C(=O)O[C@@H]2C)c(N)c1=O", "note": "[Actinomycin D] (I: T[dV]P[Sar][NMeV] / II: T[dV]P[Sar][NMeV]; ester I:1-I:C, II:1-II:C; linker I:N-II:N via Actinocin(9to1))", "values": [{"measurement": "stimulatory effect of AR7 on CMA under transcriptional repression", "setting": "[2]; AR7 plus Actinomycin D", "value": "partially reduced the stimulatory effect of AR7 on CMA"}]}
{"smiles": "CC1=C(/C=C/C(C)=C/C=C/C(C)=C/C(=O)O)C(C)(C)CCC1", "note": "[ATRA, all-trans-retinoic acid]", "values": [{"measurement": "macroautophagy: LC3 steady state levels and lysosomal flux", "setting": "[1]", "value": "no significant changes in steady state levels of LC3 or in its lysosomal flux"}, {"measurement": "LAMP-2A mRNA levels, serum deprived", "setting": "[3]; ATRA added to cells deprived of serum", "value": "significant decrease in LAMP-2A mRNA"}, {"measurement": "LAMP-2A mRNA levels, basal", "setting": "[3]; ATRA, basal conditions", "value": "No changes in LAMP-2A mRNA levels"}, {"measurement": "RARα agonist activity (luciferase)", "setting": "[4]; compound alone", "value": "dose-dependent activation"}, {"measurement": "basal CMA", "setting": "[2]; ATRA treatment, presence of serum", "value": "did not have a noticeable effect on basal CMA"}, {"measurement": "activation of CMA in response to serum removal", "setting": "[2]; ATRA treatment, serum removal", "value": "significantly reduced the activation of this pathway in response to serum removal"}, {"measurement": "effect on CMA activity in RARα (−) cells", "setting": "[2]; RARα knock-down mouse fibroblasts", "value": "no longer inhibited CMA activity in RARα (−) cells"}, {"measurement": "protein degradation in response to prolonged serum removal", "setting": "[5]; 40 μM ATRA, absence of serum", "value": "significantly reduced the increase in protein degradation"}, {"measurement": "lysosomal degradation (sensitive to inhibitors of lysosomal proteolysis)", "setting": "[5]; 40 μM ATRA, basal and inducible", "value": "both basal and inducible lysosomal degradation were significantly compromised"}, {"measurement": "total rates of protein degradation, basal", "setting": "[5]; 40 μM ATRA, presence of serum", "value": "did not affect total rates of protein degradation under basal conditions"}, {"measurement": "inhibitory effect on autophagic degradation of cytosolic proteins in RARα (−) cells", "setting": "[5]; ATRA, RARα knock-down", "value": "still detectable when RARα (−) cells were supplemented with ATRA"}]}
{"smiles": "Clc1ccc2c(c1)OCC(c1ccc(-c3ccccc3)cc1)=N2", "note": "[QX39]", "values": [{"measurement": "CMA activation potency relative to AR7", "setting": "[6]; cultured cells, photoactivatable CMA reporter", "value": "2-3 fold"}, {"measurement": "basal versus stress-induced CMA activation", "setting": "[6]", "value": "activated both basal and stress-induced CMA"}]}
{"smiles": "CC1=CC(=Cc2ccc(C(=O)NC(=N)N)cc2)CCC1", "note": "[GR2, N-[4-(3-methyl-cyclohex-2-enylidenemethyl)-benzoyl]-guanidine]", "values": [{"measurement": "macroautophagy: LC3 steady state levels and lysosomal flux", "setting": "[1]", "value": "absence of effect on other autophagic pathways"}, {"measurement": "RARα antagonist activity (inhibition of ATRA-dependent luciferase)", "setting": "[4]", "value": "among the most potent antagonist compounds in the library"}, {"measurement": "CMA activity (fluorescent puncta per cell, CMA reporter)", "setting": "[2]; presence of serum", "value": "marked activation of CMA activity"}]}
{"smiles": "CC1=CC(=Cc2ccc(C(=O)NC(=N)N)cc2)CC(C)(C)C1", "note": "[GR1, N-[4-(3,5,5-trimethyl-cyclohex-2-enylidenemethyl)-benzoyl]-guanidine]", "values": [{"measurement": "macroautophagy: LC3 steady state levels and lysosomal flux", "setting": "[1]", "value": "absence of effect on other autophagic pathways"}, {"measurement": "CMA activity (fluorescent puncta per cell, CMA reporter)", "setting": "[2]; presence of serum", "value": "marked activation of CMA activity"}]}
{"smiles": "Cc1ccc(C2=Nc3ccc(Cl)cc3OC2)cc1", "note": "[AR7]", "values": [{"measurement": "macroautophagy: LC3 steady state levels and lysosomal flux", "setting": "[1]", "value": "absence of effect on other autophagic pathways"}, {"measurement": "cellular viability of α-synuclein-transfected cells treated with PQ", "setting": "[7]", "value": "significant increases in cellular viability"}, {"measurement": "RARα antagonist activity (inhibition of ATRA-dependent luciferase)", "setting": "[4]", "value": "among the most potent antagonist compounds in the library"}, {"measurement": "RARα relocation to the nucleus", "setting": "[8]", "value": "sufficient to stimulate some relocation of cytosolic RARα to the nucleus"}, {"measurement": "CMA activity (fluorescent puncta per cell, CMA reporter)", "setting": "[2]; presence of serum", "value": "marked activation of CMA activity"}, {"measurement": "basal versus stress-induced CMA activation", "setting": "[6]", "value": "only activated basal CMA"}]}
